The test system of one test is Arabidopsis thaliana. The test is described as follows: Growth of plants on plates containing isoxaben. The conditions noted are these: 2 nM isoxaben in plates. It counts as in vivo. On the procedure:
Studies with a plant (Arabidopsis thaliana) expressing a CESA-1 with a A903V mutation (“qxr” or “ags”) have shown significant reorganization of the mutant cell wall. Feedback between the gene mutation and cell wall structure was determined by FTIR analysis of the polysaccharide fingerprint region. The following conclusions were ascertained; firstly, the qxr mutant has aberrant root hair formation, which can be observed using light microscopy and have been described for cell wall gene deletion alleles. The highly elongated cell shape of root hairs has been used as model to define molecular players in cell elongation and a plausible explanation for the altered root hair phenotype is consistent with a defect in cell wall structure. […] Next, the inventors explored whether treating qxr mutants with the cellulose inhibitor isoxaben at minute doses induced a synergistic effect.

The subject of the next test is Arabidopsis ixr mutants. The conditions noted are these: cited from earlier work.
A further test deals with plants. As to conditions: previous studies; cited from earlier work.

Here are results for one molecule from patent publication US8383888B1, “Plants and plant products useful for biofuel manufacture and feedstock, and methods of producing same” (University of Kentucky Research Foundation, priority 2008, dated 2013).

On to `CCC(C)(CC)c1cc(NC(=O)c2c(OC)cccc2OC)on1` [isoxaben, N-(3-[1-ethyl-1-methylpropyl]-5-isoxazolyl)-2,6,dimethoxybenzamide], for which the “effect on qxr mutant plants” value in the test with Arabidopsis thaliana (qxr (CESA-1 A903V)) is listed as “dramatically swollen organs”. The “effect on wild type plants (swollen organs)” value in the test with Arabidopsis thaliana (wild type) was “did not”. Besides, the “resistance of mutants to the herbicide” value in the test on Arabidopsis ixr mutants (ixr1-1 and ixr1-2 mutations) is reported as “high level of resistance”. Besides, the “drug tolerance of ixr1-1 relative to wild type” value in the test with Arabidopsis ixr mutants (ixr1-1 homozygotes) was “approximately 300 times”. Besides, in the test on Arabidopsis ixr mutants (ixr1-2 and ixr2-1, forward chemical genetics screen), the “resistance of mutants to the cellulose synthesis inhibitor” value was “conferring resistance”. In addition, the lethal dose in the test with plants was 5 nM.
